Results as given in US7754758B2, “Pyrrolidine derivatives acting as CCR3-receptor antagonists” (Novartis AG, priority 2004, dated 2010).

Molecular target: T1, human CCR-3 (Homo sapiens, UniProt P51677)
T1 construct: expressed in transfected cells; host or cells: rat basophil leukaemia (RBL-2H3) cells, membrane preparation
T1 sequence (P51677 1-355): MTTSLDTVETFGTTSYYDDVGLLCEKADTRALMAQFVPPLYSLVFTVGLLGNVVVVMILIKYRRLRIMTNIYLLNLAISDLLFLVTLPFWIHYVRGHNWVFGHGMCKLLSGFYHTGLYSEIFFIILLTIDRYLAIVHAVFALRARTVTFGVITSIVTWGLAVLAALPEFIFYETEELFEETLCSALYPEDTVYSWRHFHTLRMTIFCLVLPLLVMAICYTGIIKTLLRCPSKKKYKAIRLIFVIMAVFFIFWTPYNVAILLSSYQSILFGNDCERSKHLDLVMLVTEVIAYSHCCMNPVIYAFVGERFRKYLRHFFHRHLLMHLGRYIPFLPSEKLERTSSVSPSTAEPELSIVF
Assay: [125I]-human eotaxin binding to CCR-3, SPA assay
Conditions: inhibition of [125I]-human eotaxin binding; membranes of RBL-2H3 cells stably expressing CCR3; 4 hours at room temperature
Excerpt: Recombinant cells expressing human CCR-3 are captured by wheatgerm agglutinin (WGA) polyvinyltoluidene (PVT) SPA beads (available from Amersham), through a specific interaction between the WGA and carbohydrate residues of glycoproteins on the surface of the cells. [^125I]-human eotaxin (available from Amersham) binds specifically to CCR-3 receptors bringing the [^125I]-human eotaxin in close proximity to the SPA beads. Emitted â-particles from the [^125I]-human eotaxin excite, by its proximity, the fluorophore in the beads and produce light.
Preparation of Assay Buffer: 5.96 g HEPES and 7.0 g sodium chloride are dissolved in distilled water and 1 M aqueous CaCl2 (1 ml) and 1M aqueous MgCl2 (5 ml) are added. The pH is adjusted to 7.6 with NaOH and the solution made to a final volume of 1 l using distilled water. 5 g bovine serum albumin and 0.1 g sodium azide are then dissolved in the solution and the resulting buffer stored at 4° C. […]
Preparation of membranes: Confluent rat basophil leukaemia (RBL-2H3) cells stably expressing CCR3 are removed from tissue culture flasks using enzyme-free cell dissociation buffer and resuspended in phosphate-buffered saline. […] The resulting scintillations are counted using a Canberra Packard TopCount, each well being counted for 1 minute. […]

IC50 [nM] | Compound
270 | COc1cccc(NC(=O)NCCCN2CCC(Oc3ccc(F)cc3)C2)c1 (centres unmarked) [Example 2, 1-{3-[3-(4-fluorophenoxy)pyrrolidine-1-yl]propyl}-3-(3-methoxyphenyl)-urea]
446 | O=C(NCCCN1CCC(Oc2ccc(F)cc2)C1)Nc1ccc(F)c(F)c1 (centres unmarked) [Example 3]
